In patent US20050004105A1, “Treatment for a attention-deficit hyperactivity disorder” (priority 2003, published 2005):

What was measured:
[1] = molecular target: T1, 5-HT1A receptors (Homo sapiens, UniProt P08908); conditions: proportion of maximal inhibition of forskolin-stimulated cAMP relative to 5-HT; Koek et al., 1998; cited from earlier work
T1 sequence (P08908 1-422): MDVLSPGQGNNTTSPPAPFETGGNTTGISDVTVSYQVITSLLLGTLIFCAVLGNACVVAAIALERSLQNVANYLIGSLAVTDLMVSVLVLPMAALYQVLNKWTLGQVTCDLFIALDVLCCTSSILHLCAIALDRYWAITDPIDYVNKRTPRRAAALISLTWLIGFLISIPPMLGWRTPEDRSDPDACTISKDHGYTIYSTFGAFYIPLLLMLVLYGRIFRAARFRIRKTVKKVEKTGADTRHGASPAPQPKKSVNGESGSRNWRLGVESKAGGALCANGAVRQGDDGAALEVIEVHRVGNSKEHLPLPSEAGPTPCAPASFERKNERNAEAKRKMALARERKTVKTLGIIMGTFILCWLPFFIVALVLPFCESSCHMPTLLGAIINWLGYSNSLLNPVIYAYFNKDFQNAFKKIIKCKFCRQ

[2] = molecular target: T1, 5-HT1A receptors; assay: 5-HT1A receptor affinity (Schipper et al., 1991); assay type: binding; conditions: based on Ki values of Schipper et al.
[3] = test system: Cm mutant mice; conditions: Cm mutant mice (methylphenidate: both control and Cm mutants); Hess et al., 1996; cited from earlier work

SMILES	intrinsic activity at the 5-HT1A receptor [1]	other results
CCCN(CCC)C1Cc2c[nH]c3ccc(C(N)=O)c(c23)C1 (single isomer, unassigned; (-)) [LY228729, (−)-4(dipropylamino)-1,3,4,5-tetrahydrobenz-[c,d,]indole-6-carboxamide]	0.88	–
COc1ccc2cccc(N3CCN(CCNC(=O)c4ccc(F)cc4)CC3)c2c1 [S14506, 1(2-[4-fluorobenzoylamino]ethyl)-4-(7-methoxynaphtyl)piperazine]	0.95	–
O=C1CC2(CCCC2)CC(=O)N1CCCCN1CCN(c2ncccn2)CC1 [buspirone]	–	ΔpKi for 5-HT1A and D2 receptors [2]: 0.44
CC1(C)CC(=O)N(CCCCN2CCN(c3ncccn3)CC2)C(=O)C1 [gepirone]	0.77	–
COC(=O)C(c1ccccc1)C1CCCCN1 (centres unmarked) [methylphenidate]	–	effect on hyperactivity / locomotor activity [3]: increases locomotor activity in a dose-dependent manner
